# According to patent US9226926B2, “Therapeutic agent for lower urinary tract disease” (N.M.A. Co., Ltd., priority 2013, dated 2016):
# Assays:
# Type in all cases: in vivo, SD rats
# [1] = system: MPO; assay: MPO inflammation marker in bladder tissue by ELISA; details: rebamipide group vs CYP group
# Description: (§1) To 12-week old male SD rats, cyclophosphamide (150 mg/kg) was intraperitoneally administered under isoflurane anesthetization. Immediately after that, rebamipide (1 mM or 10 mM, 300 μL) or vehicle was injected into the bladder, and the rats were held in the supine position for 1 hour. (3) TNFα, IL-6 and IL-1β which are inflammatory cytokines in bladder tissue were measured by RT-PCR, and an inflammation marker, MPO, was measured by ELISA.
# [2] = system: TNFα; assay: TNFα in bladder tissue by RT-PCR; details: rebamipide group vs CYP group
# Description: as §1
# [3] = system: IL-6; assay: IL-6 in bladder tissue by RT-PCR; details: rebamipide group vs CYP group
# Description: as §1
# [4] = system: IL-1β; assay: IL-1β in bladder tissue by RT-PCR; details: rebamipide group vs CYP group
# Description: as §1
# [5] = system: rat model of chronic cystitis; assay: Conscious cystometrography in rat model of chronic cystitis (cyclophosphamide); details: 300 μL into the bladder, cyclophosphamide 150 mg/kg i.p., after two days
# Description: In addition, experiments were performed for studying effects of the present invention on cystitis using a rat model of chronic cystitis. To 12-week old male SD rats, cyclophosphamide (150 mg/kg) was intraperitoneally administered under isoflurane anesthetization. Immediately after that, rebamipide (1 mM or 10 mM, 300 μL) or vehicle was injected into the bladder, and the rats were held in the supine position for 1 hour. (1) After two days, conscious cystometrography was performed (the saline perfusion flow rate: 0.04 ml/min) was performed.
# [6] = system: rat model of chronic cystitis; assay: H&E staining of removed bladder to score the degree of inflammation
# Description: To 12-week old male SD rats, cyclophosphamide (150 mg/kg) was intraperitoneally administered under isoflurane anesthetization. Immediately after that, rebamipide (1 mM or 10 mM, 300 μL) or vehicle was injected into the bladder, and the rats were held in the supine position for 1 hour. (2) After two days, the bladder was removed, and H&E stained to score the degree of inflammation
# [7] = rebamipide group vs CYP group, after two days
smiles,measurement,setting,value
"O=C(NC(Cc1cc(=O)[nH]c2ccccc12)C(=O)O)c1ccc(Cl)cc1 (stereo not drawn) [rebamipide, 2-(4-chlorbenzoylamino)-3-(2-quinolone-4-yl)propionic acid]",level of MPO in the bladder tissue,[1],increase was suppressed
same,level of TNFα in the bladder tissue,[2],increase was suppressed
same,level of IL-6 in the bladder tissue,[3],increase was suppressed
same,level of IL-1β in the bladder tissue,[4],increase was suppressed
same,urination interval,[5]; 1 mM,14.4 ± 2.1 min
same,urination interval,[5]; 10 mM,21.1 ± 2.5 min
same,invasive inflammatory cells,[6]; [7],significantly reduced
same,submucosal edema,[6]; [7],significantly reduced
same,bladder inflammation,"[6]; rebamipide injected into the bladder, summary",suppressed
